Drawing on patent publication US20220259193A1, “KCNT1 INHIBITORS AND METHODS OF USE” (Praxis Precision Medicines, Inc., priority 2019, published 2022), this text covers IC50 for 31 compounds.

The target of this test is T1, KCNT1 (KNa1.1, Slack) (Homo sapiens, UniProt Q5JUK3).
T1 construct: expressed in transfected cells; host or cells: HEK-TREX (tetracycline-inducible HEK cell line)
T1 sequence (Q5JUK3 1-1230): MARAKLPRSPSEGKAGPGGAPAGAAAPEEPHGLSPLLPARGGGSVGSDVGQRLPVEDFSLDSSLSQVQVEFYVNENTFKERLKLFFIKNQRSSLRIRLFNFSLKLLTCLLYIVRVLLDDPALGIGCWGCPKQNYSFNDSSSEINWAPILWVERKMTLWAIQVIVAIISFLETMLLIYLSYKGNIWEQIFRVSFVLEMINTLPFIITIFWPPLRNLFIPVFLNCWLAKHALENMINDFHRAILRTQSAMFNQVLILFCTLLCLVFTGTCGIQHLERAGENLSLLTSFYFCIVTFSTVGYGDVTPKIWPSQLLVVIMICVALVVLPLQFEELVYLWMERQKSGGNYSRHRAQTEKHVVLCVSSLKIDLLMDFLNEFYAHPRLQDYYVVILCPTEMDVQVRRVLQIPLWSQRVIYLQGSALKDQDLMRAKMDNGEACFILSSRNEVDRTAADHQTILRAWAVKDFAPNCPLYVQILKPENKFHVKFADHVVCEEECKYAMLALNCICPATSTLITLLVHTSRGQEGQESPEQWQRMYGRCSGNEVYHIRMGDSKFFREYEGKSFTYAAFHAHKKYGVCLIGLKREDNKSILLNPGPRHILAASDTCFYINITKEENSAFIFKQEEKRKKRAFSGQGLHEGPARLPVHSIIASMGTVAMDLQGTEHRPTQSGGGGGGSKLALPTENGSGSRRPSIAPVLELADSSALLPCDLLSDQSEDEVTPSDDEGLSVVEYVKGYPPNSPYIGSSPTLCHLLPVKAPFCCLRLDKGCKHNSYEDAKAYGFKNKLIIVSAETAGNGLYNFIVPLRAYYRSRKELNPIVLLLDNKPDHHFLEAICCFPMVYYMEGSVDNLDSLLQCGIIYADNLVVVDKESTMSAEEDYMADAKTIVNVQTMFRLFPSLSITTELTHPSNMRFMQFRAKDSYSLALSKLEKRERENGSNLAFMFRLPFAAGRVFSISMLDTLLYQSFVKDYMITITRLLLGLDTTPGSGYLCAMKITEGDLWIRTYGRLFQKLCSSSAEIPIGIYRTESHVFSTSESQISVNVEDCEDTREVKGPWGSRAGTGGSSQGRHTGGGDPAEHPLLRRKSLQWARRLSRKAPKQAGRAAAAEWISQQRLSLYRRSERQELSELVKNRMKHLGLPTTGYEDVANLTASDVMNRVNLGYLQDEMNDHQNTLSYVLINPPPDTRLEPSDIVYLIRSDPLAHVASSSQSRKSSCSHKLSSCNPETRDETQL
The experiment in a line: KCNT1 patch clamp assay (SyncroPatch 384PE automated patch clamp). In kind it is cell-based. Conditions: tetracycline inducible HEK-TREX cell line; perforated patch; step from −80 mV to 0 mV; room temperature; read-out: KCNT1-WT IC50. The essentials:
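Tetracycline-inducible HEK-TREX cells; perforated-patch (10 μM escin) population recordings at room temperature, holding −80 mV with 100 ms step to 0 mV.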
In general terms: The patch-clamp technique gives a direct electrical read-out from membranes.

Each structure is given as a SMILES string.

The IC50 is the midpoint of a concentration-inhibition curve. Regarding `CCOC(=O)N[C@@H](C)c1nc(-c2ccnc(C3CC3)c2)no1` [Compound 274], the 50% inhibitory concentration (IC50) is at most 1000 nM. Regarding `CC(C)COC(=O)N[C@@H](C)c1nc(-c2ccnc(C3CC3)c2)no1` [Compound 275], the IC50 was at most 1000 nM. For `C[C@H](NC(=O)OC1CCCC1)c1nc(-c2ccnc(C3CC3)c2)no1` [Compound 276] the value was at most 1000 nM. For `CC(C)OC(=O)N[C@@H](C)c1nc(-c2ccnc(C3CC3)c2)no1` [Compound 277] the value was 1000 to 20000 nM; for `C[C@H](NC(=O)c1ccnn1Cc1ccccc1)c1nc(-c2ccnc(C3CC3)c2)no1` [Compound 280, (S)-1-benzyl-N-(1-(3-(2-cyclopropylpyridin-4-yl)-1,2,4-oxadiazol-5-yl)ethyl)-1H-pyrazole-5-carboxamide], at most 1000 nM; for `C[C@H](NC(=O)OC(C)(C)C)c1nc(-c2cccc(F)c2)no1` [Compound 281, tert-butyl N-[(1S)-1-[3-(3-fluorophenyl)-1,2,4-oxadiazol-5-yl]ethyl]carbamate], 1000 to 20000 nM.

Regarding `C[C@@H](NC(=O)OC(C)(C)C)c1nc(-c2cccc(F)c2)no1` [Compound 282, tert-butyl (R)-(1-(3-(3-fluorophenyl)-1,2,4-oxadiazol-5-yl)ethyl)carbamate], the IC50 is 1000 to 20000 nM. The result for `COc1cccc(-c2noc([C@H](C)NC(=O)OC(C)(C)C)n2)c1` [Compound 283, tert-butyl (S)-(1-(3-(3-methoxyphenyl)-1,2,4-oxadiazol-5-yl)ethyl)carbamate] reads 1000 to 20000 nM; that for `CC[C@H](NC(=O)OC(C)(C)C)c1nc(-c2ccnc(C)c2)no1` [Compound 284, tert-butyl (S)-(1-(3-(2-methylpyridin-4-yl)-1,2,4-oxadiazol-5-yl)propyl)carbamate], 1000 to 20000 nM.

With `Cc1ccnc(-c2noc([C@H](C)NC(=O)OC(C)(C)C)n2)c1` [Compound 285, tert-butyl (S)-(1-(3-(4-methylpyridin-2-yl)-1,2,4-oxadiazol-5-yl)ethyl)carbamate], the IC50 was at least 20000 nM.

On to `CC(C)Oc1cc(-c2noc([C@H](C)NC(=O)OC(C)(C)C)n2)ccn1` [Compound 286, tert-butyl (S)-(1-(3-(2-isopropoxypyridin-4-yl)-1,2,4-oxadiazol-5-yl)ethyl)carbamate], for which the IC50 was at most 1000 nM. For `COc1cc(-c2noc([C@H](C)NC(=O)OC(C)(C)C)n2)cc(C)n1` [Compound 287, tert-butyl (S)-(1-(3-(2-methoxy-6-methylpyridin-4-yl)-1,2,4-oxadiazol-5-yl)ethyl)carbamate], the IC50 is at most 1000 nM. The result for `C[C@H](NC(=O)OC(C)(C)C)c1nc(-c2ccnc(C3CC3)c2)no1` [Compound 288, tert-butyl (S)-(1-(3-(2-cyclopropylpyridin-4-yl)-1,2,4-oxadiazol-5-yl)ethyl)carbamate] reads at most 1000 nM; that for `COCc1cc(-c2noc([C@H](C)NC(=O)OC(C)(C)C)n2)ccn1` [Compound 289, tert-butyl (S)-(1-(3-(2-(methoxymethyl)pyridin-4-yl)-1,2,4-oxadiazol-5-yl)ethyl)carbamate], at least 20000 nM.

As for `CCOc1cc(-c2noc([C@H](C)NC(=O)OC(C)(C)C)n2)ccn1` [Compound 290, tert-butyl (S)-(1-(3-(2-ethoxypyridin-4-yl)-1,2,4-oxadiazol-5-yl)ethyl)carbamate], the IC50 is at most 1000 nM. Consider `C[C@H](NC(=O)OC(C)(C)C)c1nc(-c2ccnc(C(F)F)c2)no1` [Compound 291, tert-butyl (S)-(1-(3-(2-(difluoromethyl)pyridin-4-yl)-1,2,4-oxadiazol-5-yl)ethyl)carbamate], for which the IC50 was 1000 to 20000 nM. `C[C@H](NC(=O)OC(C)(C)C)c1nc(-c2ccnc(OC3CC3)c2)no1` [Compound 292, tert-butyl (S)-(1-(3-(2-cyclopropoxypyridin-4-yl)-1,2,4-oxadiazol-5-yl)ethyl)carbamate]: the IC50 lay in the range of 1000 to 20000 nM. In the case of `C[C@H](NC(=O)OC(C)(C)C)c1nc(-c2ccnc(OC3CC(F)(F)C3)c2)no1` [Compound 293, tert-butyl (S)-(1-(3-(2-(3,3-difluorocyclobutoxy)pyridin-4-yl)-1,2,4-oxadiazol-5-yl)ethyl)carbamate], the IC50 was at least 20000 nM. For `C[C@H](NC(=O)OC(C)(C)C)c1nc(-c2ccnc(OCC(F)F)c2)no1` [Compound 294, tert-butyl (S)-(1-(3-(2-(2,2-difluoroethoxy)pyridin-4-yl)-1,2,4-oxadiazol-5-yl)ethyl)carbamate] the value was 1000 to 20000 nM; for `C[C@H](NC(=O)OC(C)(C)C)c1nc(-c2ccnc(C(F)(F)F)c2)no1` [Compound 295, tert-butyl (S)-(1-(3-(2-(trifluoromethyl)pyridin-4-yl)-1,2,4-oxadiazol-5-yl)ethyl)carbamate], at most 1000 nM; for `C[C@@H](NC(=O)OC(C)(C)C)c1nc(-c2ccnc(C(F)(F)F)c2)no1` [Compound 296, tert-butyl (R)-(1-(3-(2-(trifluoromethyl)pyridin-4-yl)-1,2,4-oxadiazol-5-yl)ethyl)carbamate], 1000 to 20000 nM.

On to `CC[C@H](NC(=O)c1cc(C)n(-c2cccnc2)n1)c1nc(-c2ccnc(C)c2)no1` [Compound 299, (S)-5-methyl-N-(1-(3-(2-methylpyridin-4-yl)-1,2,4-oxadiazol-5-yl)propyl)-1-(pyridin-3-yl)-1H-pyrazole-3-carboxamide], for which the IC50 is at least 20000 nM.

Take `Cn1nc(C(F)(F)F)cc1C(=O)NCc1nc(-c2ccnc(C(F)(F)F)c2)no1` [Compound 300, 2-methyl-5-(trifluoromethyl)-N-[[3-[2-(trifluoromethyl)-4-pyridyl]-1,2,4-oxadiazol-5-yl]methyl]pyrazole-3-carboxamide]: the IC50 is at most 1000 nM. For `Cn1nc(C(F)(F)F)cc1C(=O)NCc1nc(-c2ccnc(C3CC3)c2)no1` [Compound 301, N-[[3-(2-cyclopropyl-4-pyridyl)-1,2,4-oxadiazol-5-yl]methyl]-2-methyl-5-(trifluoromethyl)pyrazole-3-carboxamide] the value was at most 1000 nM; for `CN(Cc1nc(-c2ccnc(C3CC3)c2)no1)C(=O)c1cc(C(F)(F)F)nn1C` [Compound 302, N-[[3-(2-cyclopropyl-4-pyridyl)-1,2,4-oxadiazol-5-yl]methyl]-N,2-dimethyl-5-(trifluoromethyl)pyrazole-3-carboxamide], at most 1000 nM. Take `C[C@H](NC(=O)c1ccnn1C1CCC1)c1nc(-c2ccnc(C3CC3)c2)no1` [Compound 304, 2-cyclobutyl-N-[(1S)-1-[3-(2-cyclopropyl-4-pyridyl)-1,2,4-oxadiazol-5-yl]ethyl]pyrazole-3-carboxamide]: the IC50 was at most 1000 nM. For the compound `C[C@H](NC(=O)c1ccnn1C1CC1)c1nc(-c2ccnc(C3CC3)c2)no1` [Compound 305, 2-cyclopropyl-N-[(1S)-1-[3-(2-cyclopropyl-4-pyridyl)-1,2,4-oxadiazol-5-yl]ethyl]pyrazole-3-carboxamide], the IC50 was at most 1000 nM. The result for `C[C@H](NC(=O)c1ccn(Cc2ccccc2)n1)c1nc(-c2ccnc(C3CC3)c2)no1` [Compound 306, 1-benzyl-N-[(1S)-1-[3-(2-cyclopropyl-4-pyridyl)-1,2,4-oxadiazol-5-yl]ethyl]pyrazole-3-carboxamide] reads at most 1000 nM. Turning to `C[C@H](NC(=O)c1cc(C(F)(F)F)nn1C)c1nc(-c2ccnc(C3CCCC3)c2)no1` [Compound 307, (S)—N-(1-(3-(2-cyclopentylpyridin-4-yl)-1,2,4-oxadiazol-5-yl)ethyl)-1-methyl-3-(trifluoromethyl)-1H-pyrazole-5-carboxamide], the IC50 is at most 1000 nM. With `C[C@H](NC(=O)c1cc(C(F)F)nn1C)c1nc(-c2ccnc(C3CCCC3)c2)no1` [Compound 308, (S)—N-(1-(3-(2-cyclopentylpyridin-4-yl)-1,2,4-oxadiazol-5-yl)ethyl)-3-(difluoromethyl)-1-methyl-1H-pyrazole-5-carboxamide], the IC50 was at most 1000 nM. Consider `C[C@H](NC(=O)c1ccnn1CC1CC1)c1nc(-c2ccnc(C3CCCC3)c2)no1` [Compound 309, (S)—N-(1-(3-(2-cyclopentylpyridin-4-yl)-1,2,4-oxadiazol-5-yl)ethyl)-1-(cyclopropylmethyl)-1H-pyrazole-5-carboxamide], for which the IC50 was at most 1000 nM.
